Here are results for 9 compounds from patent publication US20170360795A1, “TREATMENT OF CANCERS USING PI3 KINASE ISOFORM MODULATORS” (INFINITY PHARMACEUTICALS, INC., priority 2013, published 2017).

One assay has as its system RPMI-8226. Description: combination screen with BTK inhibitors, 72 hours ATPLite. The class given is cell-based. Conditions: RPMI-8226 (multiple myeloma); combination with Compound 292. The method, then: (§1) The method is described as follows. Cells are thawed from a liquid nitrogen preserved state. Once cells have been expanded and divide at their expected doubling times, screening begins. Cells are seeded in growth media in either black 1536-well or 384-well tissue culture treated plates. […] These Tzero (T0) plates are read using ultra-sensitive luminescence on Envision plate readers (Perkin Elmer). […] All data points are collected via automated processes, quality controlled and analyzed using Zalicus software.
(§2) I ranges from 0% (when T=V) to 100% (when T=0). […] The measure of effect in the experiment can be the inhibition of cellular response relative to the untreated level (vehicle alone). For untreated vehicle and treated levels V and T, a fractional inhibition I=1−T/V is calculated. The inhibition ranges from 0% at the untreated level to 100% when T=0. Inhibition levels are negative for agents that actually increase levels. Other effect measures, such as an activity ratio r=T/V may be more appropriate for some assays. When activity ratios (e.g, fold increase over stimulated control) are being used, the effect can be measured using an induction I=ln(T/V). With this definition, all effect expressions are the same as for inhibition.
(§3) Growth Inhibition (GI) is used as a measure of cell viability. […] A GI reading of 100% represents complete growth inhibition −T72 compound-treated and T0 vehicle signals are matched. […] A GI reading of 200% represents complete death of all cells in the culture well. Compounds reaching an activity plateau of GI 200% are considered cytotoxic. GI is calculated by applying the following test and equation: […]
(§4) Combination analysis data were collected in a 6×6 dose matrix. Synergy is calculated by comparing a combination's response to those of its single compound, against the drug-with-itself dose-additive reference model. Deviations from dose additivity may be assessed visually on an isobologram or numerically with a Combination Index (CI). […] Additive effect is CI=1.0. […] Antagonistic effect is CI>1.0.
(§5) To measure combination effects in excess of Loewe additivity, a scalar measure to characterize the strength of synergistic interaction termed the Synergy Score is devised. The Synergy Score is calculated as: […]
(§6) The fractional inhibition for each component agent and combination point in the matrix is calculated relative to the median of all vehicle-treated control wells. The Synergy Score equation integrates the experimentally-observed activity volume at each point in the matrix in excess of a model surface numerically derived from the activity of the component agents using the Loewe model for additivity. […]
(In general: Cellular ATP, detected with luciferase, serves as a proxy for viable cell number.)

The next assay relates to OPM-2. Conditions: OPM-2 (multiple myeloma); combination with Compound 292. The method, then:
as §1, §2, §3, §4, §5
(§7) The fractional inhibition for each component agent and combination point in the matrix is calculated relative to the median of all vehicle-treated control wells. The Synergy Score equation integrates the experimentally-observed activity volume at each point in the matrix in excess of a model surface numerically derived from the activity of the component agents using the Loewe model for additivity. Additional terms in the Synergy Score equation (above) are used to normalize for various dilution factors used for individual agents and to allow for comparison of synergy scores across an entire experiment. The inclusion of positive inhibition gating or an Idata multiplier removes noise near the zero effect level, and biases results for synergistic interactions at that occur at high activity levels.

For the next assay, the system named is OCI-LY3. Conditions: OCI-Ly3 (DLBCL ABC); combination with Compound 292. The method, then: as §1, §2, §3, §4, §5, §7
The subject of another assay is HH. The settings on record: HH (T cell lymphoma); combination with Compound 292. The method, then: as §1, §2, §3, §4, §5, §7
For another assay, the system named is HBL-1. Conditions: HBL-1 (DLBCL ABC); combination with Compound 292. The method, then:
as §1, §2, §3, §4, §5, §7

The next assay has as its system U-2932. Conditions: U-2932 (DLBCL ABC); combination with Compound 292. The method, then: as §1, §2, §3, §4, §5, §7
In a further assay the test system is NCI-H929. Conditions: NCI-H929 (multiple myeloma); combination with Compound 292. The method, then: as §1, §2, §3, §4, §5, §7
The next assay has as its system GRANTA-519. Conditions: GRANTA-519 (mantle cell lymphoma); combination with Compound 292. The method, then:
as §1, §2, §3, §4, §5, §7

A further assay relates to Jeko-1. The settings on record: Jeko-1 (mantle cell lymphoma); combination with Compound 292. The method, then: as §1, §2, §3, §4, §5, §7
A further assay concerns OCI-Ly7. The settings on record: OCI-Ly7 (DLBCL GCB); combination with Compound 292. The method, then: as §1, §2, §3, §4, §5, §7
A further assay concerns KARPAS-422. The settings on record: KARPAS-422 (follicular lymphoma); combination with Compound 292. The method, then: as §1, §2, §3, §4, §5, §7
The subject of the next assay is KARPAS-299. Conditions: KARPAS-299 (T cell lymphoma); combination with Compound 292. The method, then:
as §1, §2, §3, §4, §5, §7

Another assay has as its target PI3K δ (Homo sapiens, UniProt O00329). Description: In vitro IC50, PI3K δ (Table 3). The assay is classed as biochemical. The arrangement: purchased Upstate. The text has this:
(§8) Other commercial kits or systems for assaying PI3K activities are available. […] An exemplary system is PI 3-Kinase (human) HTRF™ Assay from Upstate.

The test system of a further assay is B cell. Put plainly: B cell proliferation EC50 (Table 3). The class given is cell-based.
The next assay has as its target PI3K γ (Homo sapiens, UniProt P48736). Put plainly: In vitro IC50, PI3K γ (Table 3). The assay is classed as biochemical. The arrangement: purchased Sigma.
From the text: as §8

Another assay addresses T1, PI3K β (Homo sapiens, UniProt P42338).
T1 construct: purchased Upstate
Put plainly: In vitro IC50, PI3K β (Table 3). The assay is classed as biochemical.
From the text: as §8

Another assay deals with T2, PI3K α (Homo sapiens, UniProt P42336).
T2 construct: purchased Upstate
Description: In vitro IC50, PI3K α (Table 3). The assay is classed as biochemical.
From the text: as §8

A further assay concerns RL. Put plainly: combination screen with BTK inhibitors, 72 hours ATPLite. The class given is cell-based. Conditions: RL (follicular lymphoma); combination with Compound 292. The method, then: as §1, §2, §3, §4, §5, §6

PI3K δ, sequence (O00329 whole entry): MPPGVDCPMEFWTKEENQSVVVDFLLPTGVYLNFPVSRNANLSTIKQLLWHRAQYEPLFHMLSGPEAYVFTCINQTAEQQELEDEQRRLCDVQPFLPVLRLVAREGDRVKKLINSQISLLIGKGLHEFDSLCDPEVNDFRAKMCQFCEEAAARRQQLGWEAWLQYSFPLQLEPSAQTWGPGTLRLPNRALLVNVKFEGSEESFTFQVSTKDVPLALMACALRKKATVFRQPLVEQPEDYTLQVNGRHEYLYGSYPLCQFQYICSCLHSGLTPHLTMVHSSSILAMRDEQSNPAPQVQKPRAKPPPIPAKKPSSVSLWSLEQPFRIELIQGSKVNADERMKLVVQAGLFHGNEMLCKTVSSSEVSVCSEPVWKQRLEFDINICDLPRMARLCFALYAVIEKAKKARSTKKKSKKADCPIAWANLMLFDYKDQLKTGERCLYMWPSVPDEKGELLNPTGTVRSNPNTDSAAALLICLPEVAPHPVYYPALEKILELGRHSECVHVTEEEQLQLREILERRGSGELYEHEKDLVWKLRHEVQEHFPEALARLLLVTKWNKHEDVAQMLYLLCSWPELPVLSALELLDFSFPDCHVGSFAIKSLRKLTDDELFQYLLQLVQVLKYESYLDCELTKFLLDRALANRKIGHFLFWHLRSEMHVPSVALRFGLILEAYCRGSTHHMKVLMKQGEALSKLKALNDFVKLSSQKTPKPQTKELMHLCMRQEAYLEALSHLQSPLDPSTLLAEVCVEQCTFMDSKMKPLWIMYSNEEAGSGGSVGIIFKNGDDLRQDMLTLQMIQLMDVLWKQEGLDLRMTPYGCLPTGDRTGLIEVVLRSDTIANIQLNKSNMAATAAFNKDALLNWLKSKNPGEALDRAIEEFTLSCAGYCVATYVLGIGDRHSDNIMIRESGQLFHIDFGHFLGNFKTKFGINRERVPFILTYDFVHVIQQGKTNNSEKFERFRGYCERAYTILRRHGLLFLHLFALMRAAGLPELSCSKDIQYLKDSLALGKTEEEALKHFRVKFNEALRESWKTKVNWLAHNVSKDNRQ
PI3K δ, sequence (P27986 whole entry partner): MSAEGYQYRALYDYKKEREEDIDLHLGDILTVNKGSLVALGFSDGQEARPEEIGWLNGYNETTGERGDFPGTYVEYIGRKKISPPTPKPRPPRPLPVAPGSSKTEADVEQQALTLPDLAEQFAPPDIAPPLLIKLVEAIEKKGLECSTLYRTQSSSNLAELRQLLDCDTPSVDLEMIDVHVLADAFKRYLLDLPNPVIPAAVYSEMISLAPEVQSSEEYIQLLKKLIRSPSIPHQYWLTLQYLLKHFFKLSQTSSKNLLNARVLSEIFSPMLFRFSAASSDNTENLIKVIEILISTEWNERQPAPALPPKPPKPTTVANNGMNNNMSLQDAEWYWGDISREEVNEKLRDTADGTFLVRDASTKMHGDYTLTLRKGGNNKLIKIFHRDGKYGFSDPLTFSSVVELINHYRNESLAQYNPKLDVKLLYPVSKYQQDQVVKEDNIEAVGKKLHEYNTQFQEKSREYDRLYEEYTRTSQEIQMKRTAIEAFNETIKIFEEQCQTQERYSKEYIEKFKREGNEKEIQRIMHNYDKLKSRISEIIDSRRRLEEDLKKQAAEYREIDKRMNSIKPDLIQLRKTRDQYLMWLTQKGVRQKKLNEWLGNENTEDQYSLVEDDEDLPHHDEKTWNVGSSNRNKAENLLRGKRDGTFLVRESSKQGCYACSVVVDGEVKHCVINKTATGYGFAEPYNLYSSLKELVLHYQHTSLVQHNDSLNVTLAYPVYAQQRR
PI3K γ, sequence (P48736 whole entry): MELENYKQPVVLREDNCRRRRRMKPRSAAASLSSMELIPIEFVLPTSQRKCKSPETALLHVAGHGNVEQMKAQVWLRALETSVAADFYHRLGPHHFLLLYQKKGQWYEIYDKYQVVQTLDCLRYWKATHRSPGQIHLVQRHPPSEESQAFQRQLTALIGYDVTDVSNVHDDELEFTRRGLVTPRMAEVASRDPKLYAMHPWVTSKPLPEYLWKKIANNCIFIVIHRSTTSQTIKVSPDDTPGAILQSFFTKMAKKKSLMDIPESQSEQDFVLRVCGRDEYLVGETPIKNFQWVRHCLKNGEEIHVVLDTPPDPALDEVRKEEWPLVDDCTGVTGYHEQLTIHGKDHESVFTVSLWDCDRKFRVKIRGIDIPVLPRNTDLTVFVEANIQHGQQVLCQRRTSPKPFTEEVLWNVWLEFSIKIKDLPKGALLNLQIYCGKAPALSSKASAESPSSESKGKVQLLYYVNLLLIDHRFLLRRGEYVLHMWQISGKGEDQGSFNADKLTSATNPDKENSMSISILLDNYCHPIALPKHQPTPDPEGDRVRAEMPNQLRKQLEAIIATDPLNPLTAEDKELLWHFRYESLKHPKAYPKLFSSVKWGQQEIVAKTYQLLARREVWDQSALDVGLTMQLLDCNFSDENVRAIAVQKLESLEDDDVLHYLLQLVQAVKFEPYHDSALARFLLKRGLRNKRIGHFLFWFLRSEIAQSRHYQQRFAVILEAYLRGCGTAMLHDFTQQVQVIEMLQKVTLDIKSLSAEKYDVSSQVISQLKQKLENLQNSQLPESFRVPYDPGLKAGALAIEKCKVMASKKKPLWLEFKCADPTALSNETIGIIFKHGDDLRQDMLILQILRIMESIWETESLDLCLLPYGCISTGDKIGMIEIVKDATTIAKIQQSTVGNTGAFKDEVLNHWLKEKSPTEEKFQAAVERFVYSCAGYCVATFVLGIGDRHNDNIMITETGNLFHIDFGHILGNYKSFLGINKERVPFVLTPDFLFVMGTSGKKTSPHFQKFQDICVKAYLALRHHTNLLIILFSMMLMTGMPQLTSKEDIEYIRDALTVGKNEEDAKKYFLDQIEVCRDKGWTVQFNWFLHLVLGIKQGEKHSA
T2 sequence (P42336 whole entry): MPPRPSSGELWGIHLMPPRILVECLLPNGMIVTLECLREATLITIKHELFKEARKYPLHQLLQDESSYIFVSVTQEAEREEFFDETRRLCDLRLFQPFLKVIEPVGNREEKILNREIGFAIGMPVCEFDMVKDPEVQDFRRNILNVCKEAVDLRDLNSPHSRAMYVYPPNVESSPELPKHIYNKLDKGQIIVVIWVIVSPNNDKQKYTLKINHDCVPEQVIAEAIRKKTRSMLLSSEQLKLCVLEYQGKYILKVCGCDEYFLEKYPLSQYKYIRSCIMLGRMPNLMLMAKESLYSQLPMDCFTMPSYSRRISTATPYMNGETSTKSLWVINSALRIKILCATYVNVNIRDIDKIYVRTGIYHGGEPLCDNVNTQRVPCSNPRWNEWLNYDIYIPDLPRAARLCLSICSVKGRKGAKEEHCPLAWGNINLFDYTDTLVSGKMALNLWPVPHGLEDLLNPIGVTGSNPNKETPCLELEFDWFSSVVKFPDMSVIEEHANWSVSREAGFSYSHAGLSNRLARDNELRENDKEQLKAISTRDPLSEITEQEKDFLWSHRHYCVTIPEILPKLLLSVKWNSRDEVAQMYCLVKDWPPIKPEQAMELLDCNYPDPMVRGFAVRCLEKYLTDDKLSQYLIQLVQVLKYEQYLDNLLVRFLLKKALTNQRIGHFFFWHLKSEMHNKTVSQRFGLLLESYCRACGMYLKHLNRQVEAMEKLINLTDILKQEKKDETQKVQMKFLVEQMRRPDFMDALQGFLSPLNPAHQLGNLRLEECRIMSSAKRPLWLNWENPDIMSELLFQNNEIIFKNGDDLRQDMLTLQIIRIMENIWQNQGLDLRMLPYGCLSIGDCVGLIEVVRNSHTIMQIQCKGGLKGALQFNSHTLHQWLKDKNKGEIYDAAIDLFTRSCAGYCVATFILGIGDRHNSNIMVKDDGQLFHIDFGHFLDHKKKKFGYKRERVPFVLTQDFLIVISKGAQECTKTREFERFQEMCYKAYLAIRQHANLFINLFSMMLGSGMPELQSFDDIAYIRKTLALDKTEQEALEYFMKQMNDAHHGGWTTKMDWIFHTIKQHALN
T2 sequence (P27986 whole entry partner): as the sequence (P27986 whole entry partner) above
T1 sequence (P42338 whole entry): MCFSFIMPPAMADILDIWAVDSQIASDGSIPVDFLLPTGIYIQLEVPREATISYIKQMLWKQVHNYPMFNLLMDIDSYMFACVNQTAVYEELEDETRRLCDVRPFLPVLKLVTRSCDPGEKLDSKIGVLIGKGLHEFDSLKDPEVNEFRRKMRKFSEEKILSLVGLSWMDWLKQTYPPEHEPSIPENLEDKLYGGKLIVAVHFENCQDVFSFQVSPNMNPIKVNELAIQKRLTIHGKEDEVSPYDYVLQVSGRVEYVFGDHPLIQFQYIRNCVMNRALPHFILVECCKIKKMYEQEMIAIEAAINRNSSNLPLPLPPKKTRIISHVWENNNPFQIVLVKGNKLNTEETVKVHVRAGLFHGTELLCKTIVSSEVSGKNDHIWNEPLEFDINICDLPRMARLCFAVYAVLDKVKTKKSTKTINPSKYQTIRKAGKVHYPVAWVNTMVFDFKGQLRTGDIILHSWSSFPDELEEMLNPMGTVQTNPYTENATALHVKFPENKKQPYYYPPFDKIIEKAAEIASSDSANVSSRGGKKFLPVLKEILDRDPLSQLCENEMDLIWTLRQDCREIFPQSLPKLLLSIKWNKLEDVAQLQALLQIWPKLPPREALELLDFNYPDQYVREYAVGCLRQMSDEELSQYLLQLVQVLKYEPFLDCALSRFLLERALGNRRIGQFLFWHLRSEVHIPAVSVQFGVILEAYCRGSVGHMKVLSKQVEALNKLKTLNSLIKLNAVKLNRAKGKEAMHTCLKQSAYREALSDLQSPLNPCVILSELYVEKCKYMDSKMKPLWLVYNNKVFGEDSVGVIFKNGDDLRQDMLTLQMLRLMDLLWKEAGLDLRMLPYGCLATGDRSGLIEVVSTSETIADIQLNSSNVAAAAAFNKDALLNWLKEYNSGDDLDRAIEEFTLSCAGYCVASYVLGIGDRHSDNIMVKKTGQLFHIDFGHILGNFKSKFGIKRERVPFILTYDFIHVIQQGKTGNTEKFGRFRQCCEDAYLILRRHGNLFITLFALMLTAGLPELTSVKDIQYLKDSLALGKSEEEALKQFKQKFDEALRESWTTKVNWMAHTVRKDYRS
T1 sequence (P27986 whole entry partner): as the sequence (P27986 whole entry partner) above

For the compound `C=CC(=O)Nc1cccc(Nc2nc(Nc3ccc(OCCOC)cc3)ncc2F)c1` [AVL-292, N-(3-((5-fluoro-2-((4-(2-methoxyethoxy)phenyl)amino)pyrimidin-4-yl)amino)phenyl)acrylamide], the “CI50 (growth inhibition)” value is given as “U (U=0.7 to <1)” in the assay on RPMI-8226; “U (U=0.7 to <1)” in the assay with OCI-LY3; “U (U=0.7 to <1)” in the assay on NCI-H929; “W (W=≧1)” in the assay with GRANTA-519; “U (U=0.7 to <1)” in the assay on Jeko-1; “W (W=≧1)” with OCI-Ly7. Besides, the “CI50 (growth inhibition)” value in the assay with KARPAS-422 and with KARPAS-299 was “U (U=0.7 to <1)” in each case. For the same compound, the “CI50 (inhibition)” value is given as “W (W=≧1)” in the assay with RPMI-8226; “U (U=0.7 to <1)” with OPM-2; “U (U=0.7 to <1)” in the assay with HH; “W (W=≧1)” in the assay with HBL-1; “W (W=≧1)” in the assay on U-2932; “U (U=0.7 to <1)” in the assay on NCI-H929. The “CI50 (inhibition)” value in the assay with Jeko-1 is given as “U (U=0.7 to <1)”.

The IC50 is the point on the concentration scale where inhibition reaches its midpoint. Consider `Cc1ccccc1-n1c(Cn2nc(I)c3c(N)ncnc32)cc2cccc(C)c2c1=O` [Compound 31], for which the IC50 against PI3K δ was less than 1 µM.

The term EC50 denotes the concentration needed to bring the measured effect to its halfway point. A high value points to a need for much substance. With `N#Cc1nn(Cc2cc3ccccc3c(=O)n2-c2ccccc2F)c2ncnc(N)c12` [Compound 169], the EC50 in the assay on B cell is less than 1 µM. The IC50 against PI3K δ was less than 0.1 µM; against PI3K γ, greater than 10 µM; at PI3K β, greater than 10 µM; at PI3K α, greater than 10 µM.

Compound `Cc1cccc2cc(C(C)n3nc(-c4cn[nH]c4)c4c(N)ncnc43)n(C3CCN(C)CC3)c(=O)c12` (stereo not shown) [Compound 226] returned an IC50 against PI3K δ of less than 1 µM.

Consider `Cc1cccc2cc(C(C)Nc3ncnc4[nH]cnc34)n(C3CCN(C)CC3)c(=O)c12` (stereo not shown) [Compound 228], for which the IC50 is less than 1 µM against PI3K δ and less than 10 µM on PI3K β.

For the compound `Cc1cccc2cc([C@H](C)Nc3ncnc4[nH]cnc34)n(-c3ccccc3)c(=O)c12` [Compound 238], the IC50 was less than 1 µM against PI3K γ, greater than 10 µM at PI3K β and greater than 10 µM at PI3K α.

Turning to `CC(=O)Nc1nc2cc(-c3nn(Cc4cc5cccc(C)c5c(=O)n4-c4ccccc4)c4ncnc(N)c34)ccc2o1` [Compound 269], the IC50 at PI3K δ is less than 1 µM; at PI3K γ, less than 1 µM; at PI3K β it was less than 10 µM.

As to `Cc1cccc2cc([C@H](C)Nc3ncnc4[nH]c(Cl)cc34)n(C3CC3)c(=O)c12` [Compound 280], the IC50 on PI3K δ, at PI3K γ, against PI3K β and on PI3K α was greater than 10 µM in each case.

On to `C=CC(=O)N1CCC[C@@H](n2nc(-c3ccc(Oc4ccccc4)cc3)c3c(N)ncnc32)C1` [ibrutinib], for which, in the assay with RL, the “CI50 (growth inhibition)” value is on record as “U (U=0.7 to <1)” and the “CI50 (inhibition)” value is recorded as “W (W=≧1)”. In addition, the “CI50 (growth inhibition)” value in the assay with NCI-H929 was “U (U=0.7 to <1)”.
